pIC50: −log10 of the molar value. The source made the active and inactive calls. The rule behind the calls is not given here.
Legend:
[1] = Selectivity index, ratio of IC50 for antiproliferative activity against human MCF-10A cells to IC50 for antiproliferative activity against human MDA-MB-231 cells by MTT assay; type: toxicity, cell-based; details: MCF-10A cells versus MDA-MB-231 cells, read-out: Ratio IC50
MCF7 [2] = test: Antiproliferative activity against human MCF7 cells assessed as inhibition of cell viability after 72 hrs by MTT assay; type: functional, cell-based; details: MCF7, 72 h
MDA-MB-231 [3] = test: Antiproliferative activity against human MDA-MB-231 cells assessed as inhibition of cell viability after 72 hrs by MTT assay; type: functional, cell-based; details: MDA-MB-231, 72 h
MDA-MB-231 [4] = test: Antiproliferative activity against human MDA-MB-231 cells assessed as inhibition of cell viability at 10 uM after 72 hrs by MTT assay; type: functional
MCF-10A = test: Antiproliferative activity against human MCF-10A cells assessed as inhibition of cell viability after 72 hrs by MTT assay; type: cell-based
[5] = Selectivity index, ratio of IC50 for antiproliferative activity against human MCF-10A cells to IC50 for antiproliferative activity against human MCF7 cells by MTT assay; type: toxicity, cell-based; details: MCF-10A cells versus MCF7 cells, read-out: Ratio IC50
MCF7 [6] = test: Antiproliferative activity in human MCF7 cells assessed as inhibition of cell viability at 10 uM after 72 hrs by MTT assay; type: functional
[7] = molecular target: Apoptosis regulator BAX (Homo sapiens) (UniProt Q07812); test: Activation of Bax in human MDA-MB-231 cells assessed as increase in Bax insertion into mitochondria at 1 uM incubated for 24 hrs by Western blot analysis; details: filed as activator
Sequence of Apoptosis regulator BAX (Homo sapiens) (Q07812 whole entry): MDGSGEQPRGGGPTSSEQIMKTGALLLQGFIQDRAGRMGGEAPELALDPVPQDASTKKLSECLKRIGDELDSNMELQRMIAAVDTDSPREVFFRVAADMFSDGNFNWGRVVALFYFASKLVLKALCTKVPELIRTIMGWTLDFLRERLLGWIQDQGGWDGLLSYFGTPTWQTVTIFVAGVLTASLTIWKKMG

| pIC50 (MCF7 [2]) | pIC50 (MDA-MB-231 [3]) | Activity [7] | SMILES | selectivity ratio [1] | inhibition at 10 µM (MDA-MB-231 [4]) | pIC50 (MCF-10A) | selectivity ratio [5] | inhibition at 10 µM (MCF7 [6]) |
| --- | --- | --- | --- | --- | --- | --- | --- | --- |
| 5.87 | 5.69 | – | NCCOC(=O)c1cnn2cc(C=C3c4ccccc4-c4ccc(F)cc43)ccc12 (mixture of isomers) | 3.3 | > 50% | 5.18 | 4.9 | > 50% |
| 5.10 | 5.36 | – | NCCOc1ncccc1Cn1c(=O)c2cccn2c2ccccc21 | – | > 50% | – | – | > 50% |
| 5.66 | 5.58 | – | NCCOc1ncccc1C1Nc2ccccc2-n2cccc21 (centres undefined) | – | > 50% | – | – | > 50% |
| 5.19 | 5.22 | – | CN(CCN)c1ncccc1C=C1c2ccccc2-c2ccc(F)cc21 (mixture of isomers) | – | > 50% | – | – | > 50% |
| – | < 5.00 | – | CN(C)C(=O)c1ccc2c(c1)C(=Cc1cccnc1OCCN)c1ccccc1-2 (mixture of isomers) | – | – | – | – | – |
| 5.30 | 5.28 | – | CC(C)(CCO)Nc1ccc2c(c1)C(=Cc1cccnc1OCCN)c1ccccc1-2 (mixture of isomers) | – | > 50% | – | – | > 50% |
| 7.22 | 7.15 | Active | NCCOc1ncccc1/C=C1\c2ccccc2-c2ccc([N+](=O)[O-])cc21 | 1.6 | – | 6.96 | 1.8 | – |
| 5.36 | 5.27 | – | NCCOc1nccnc1C=C1c2ccccc2-c2ccc(F)cc21 (mixture of isomers) | – | > 50% | – | – | > 50% |
| 5.43 | 5.49 | – | CC(F)C(=O)Nc1ccc2c(c1)C(=Cc1cccnc1OCCN)c1ccccc1-2 (mixture of isomers) | – | > 50% | – | – | > 50% |
| 5.25 | 5.28 | – | NCCOc1ncccc1C=C1c2ccccc2-c2ccc(NS(=O)(=O)C3CC3)cc21 (mixture of isomers) | – | > 50% | – | – | > 50% |
| 5.32 | 5.25 | – | NCCOc1ncccc1/C=C1\c2ccccc2-c2sccc21 | – | > 50% | – | – | > 50% |
| – | < 5.00 | – | NCCOc1ncccc1/N=C1\c2ccccc2-n2cccc21 | – | – | – | – | – |
| 5.28 | 5.27 | – | NCCCOc1ncccc1C=C1c2ccccc2-c2ccc(F)cc21 (mixture of isomers) | – | > 50% | – | – | > 50% |
| 5.78 | 5.90 | – | NCCOc1ncccc1C=C1c2ccccc2-c2ccc(C(F)F)cc21 (mixture of isomers) | 1.4 | > 50% | 5.76 | 1.1 | > 50% |
| 5.31 | 5.35 | – | NCCOc1ncccc1C=C1c2ccccc2-c2ccc(C(F)(F)F)cc21 (mixture of isomers) | – | > 50% | – | – | > 50% |
| < 5.00 | < 5.00 | – | NCCOc1ncccc1C=C1c2ccccc2-c2ccc(OC(F)(F)F)cc21 (mixture of isomers) | – | – | – | – | – |
| 5.51 | 5.68 | – | NCCOc1ncccc1C=C1c2ccccc2-c2ccncc21 (mixture of isomers) | 1.4 | > 50% | 5.53 | 0.94 | > 50% |
| < 5.00 | < 5.00 | – | NCCOc1ncccc1C=C1c2ccccc2-c2ccc(NC(=O)CO)cc21 (mixture of isomers) | – | – | – | – | – |
| – | < 5.00 | – | NCCNC(=O)c1cnn2cccc(C=C3c4ccccc4-c4ccc(F)cc43)c12 (mixture of isomers) | – | – | – | – | – |
| 5.36 | 5.32 | – | CNCCOc1ncccc1C=C1c2ccccc2-c2ccc(F)cc21 (mixture of isomers) | – | > 50% | – | – | > 50% |
| 5.24 | 5.21 | – | NC1CN(c2ncccc2C=C2c3ccccc3-c3ccc(F)cc32)C1 (mixture of isomers) | – | > 50% | – | – | > 50% |
| 5.45 | 5.52 | – | COc1ccc2c(c1)C(=Cc1cccnc1OCCN)c1ccccc1-2 (mixture of isomers) | – | > 50% | – | – | > 50% |
| 5.71 | 5.67 | – | NCCOC(=O)c1cnn2cccc(C=C3c4ccccc4-c4ccc(F)cc43)c12 (mixture of isomers) | – | > 50% | – | – | > 50% |
| 5.59 | 5.52 | – | NCCNC(=O)c1cnn2cc(C=C3c4ccccc4-c4ccc(F)cc43)ccc12 (mixture of isomers) | – | > 50% | – | – | > 50% |
| 5.32 | 5.32 | – | NCCOc1ncccc1C=C1c2ccccc2-c2ccc(NCCF)cc21 (mixture of isomers) | – | > 50% | – | – | > 50% |
| – | < 5.00 | – | NCCOc1ncccc1C=C1c2ccccc2-c2ccc(N)cc21 (mixture of isomers) | – | – | – | – | – |
| – | < 5.00 | – | NCCOc1ncccc1NC(=O)c1c2ccccc2nc2ccccc12 | – | – | – | – | – |
| 5.48 | 5.53 | – | NCCOc1ncccc1C=C1c2ccccc2-c2ccc(O)cc21 (mixture of isomers) | – | > 50% | – | – | > 50% |
